The results in this text go back to US12180193B2, “Accelerating fibrosarcoma protein degrading compounds and associated methods of use” (Arvinas Operations, Inc., priority 2020, dated 2024).

In one assay the target is T1, BRAF V600E (Homo sapiens, UniProt P15056, V600E).
T1 construct: expressed in transfected cells
Nature of the assay: Cellular assay of target protein degradation, T-Rex 293 cells stably transfected with HA-BRAF_V600E (HA immunofluorescence, high content imaging). The settings on record: T-Rex 293 HA-BRAF V600E; for DC50: half maximal degradation, read-out: BRaf V600E DC50; for Dmax: maximum degradation observed. It is filed as cell-based. The method, boiled down:
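24 h compound exposure, 1 μM–0.1 nM final, 0.1% DMSO, 37 °C; cells induced with 1 ng/mL doxycycline. PFA fix, Triton permeabilize, anti-HA overnight 4 °C, Hoechst/phalloidin counterstain. Output: DC50, Dmax as % control.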

For a further assay, the target named is T2, BRAF G466V (Homo sapiens, UniProt P15056, G466V).
T2 construct: expressed in transfected cells
Nature of the assay: Cellular assay of target protein degradation, T-Rex 293 cells stably transfected with HA-BRAF G466V (HA immunofluorescence, high content imaging). Type of assay: cell-based. The following applies: T-Rex 293 HA-BRAF G466V; for DC50: half maximal degradation, read-out: BRaf G466V DC50; for Dmax: maximum degradation observed. In short, it runs like this: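 24 h compound, 30 nM–3 pM final, 0.1% DMSO, 37° C; HA-BRAF G466V induced with 0.75 ng/mL doxycycline. PFA fix, Triton perm, anti-HA + Alexa fluor secondary, Hoechst/phalloidin counterstain; imaging. DC50, Dmax (% of control).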

T2 sequence (P15056 whole entry G466V): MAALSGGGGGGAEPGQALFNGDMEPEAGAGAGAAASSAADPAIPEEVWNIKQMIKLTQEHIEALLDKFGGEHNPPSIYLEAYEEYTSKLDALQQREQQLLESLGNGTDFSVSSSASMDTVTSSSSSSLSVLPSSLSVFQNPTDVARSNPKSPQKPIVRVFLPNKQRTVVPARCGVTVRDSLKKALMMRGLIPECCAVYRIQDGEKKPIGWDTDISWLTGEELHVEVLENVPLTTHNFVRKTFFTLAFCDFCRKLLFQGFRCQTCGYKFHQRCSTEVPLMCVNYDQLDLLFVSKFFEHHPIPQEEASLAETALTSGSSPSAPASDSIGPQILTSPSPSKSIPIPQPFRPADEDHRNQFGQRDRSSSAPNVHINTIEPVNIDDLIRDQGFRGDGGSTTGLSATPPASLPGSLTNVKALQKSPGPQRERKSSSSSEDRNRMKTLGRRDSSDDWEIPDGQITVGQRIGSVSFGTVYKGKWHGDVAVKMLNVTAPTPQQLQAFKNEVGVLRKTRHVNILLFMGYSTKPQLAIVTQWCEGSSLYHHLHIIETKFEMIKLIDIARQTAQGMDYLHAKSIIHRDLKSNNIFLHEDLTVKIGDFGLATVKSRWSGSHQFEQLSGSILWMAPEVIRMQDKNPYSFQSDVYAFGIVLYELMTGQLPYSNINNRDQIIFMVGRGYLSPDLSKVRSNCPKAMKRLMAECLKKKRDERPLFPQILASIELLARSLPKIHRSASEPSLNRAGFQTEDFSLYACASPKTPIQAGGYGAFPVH
T1 sequence (P15056 whole entry V600E): as the sequence (P15056 whole entry G466V) above, with V466G, V600E counted along it

As for `O=C1CC[C@@H](N2Cc3cc(C[C@@H](O)CN4CC5(C4)CN(c4ccc(-c6cnc7[nH]cc(C(=O)c8c(F)ccc(NS(=O)(=O)N9CC[C@@H](F)C9)c8F)c7c6)cc4)C5)ccc3C2=O)C(=O)N1` [Compound 129, (3R)-N-{3-[5-(4-{6-[(2R)-3-{2-[(3R)-2,6-dioxopiperidin-3-yl]-1-oxo-2,3-dihydro-1H-isoindol-5-yl}-2-hydroxypropyl]-2,6-diazaspiro[3.3]heptan-2-yl}phenyl)-1H-pyrrolo[2,3-b]pyridine-3-carbonyl]-2,4-difluorophenyl}-3-fluoropyrrolidine-1-sulfonamide], the DC50 at BRAF V600E lay in the range of 5 to 50 nM; at BRAF G466V it was 1 to 10 nM. For the same compound, the results for the Dmax at BRAF V600E and at BRAF G466V were 35 to 70% and greater than 70%, respectively.

For the compound `O=C1CCC(N2Cc3cc(C[C@H](O)CN4CC5(C4)CN(c4ccc(-c6cnc7[nH]cc(C(=O)c8c(F)ccc(NS(=O)(=O)N9CC[C@@H](F)C9)c8F)c7c6)cc4)C5)ccc3C2=O)C(=O)N1` (stereo partly drawn) [Compound 130, (3R)-N-{3-[5-(4-{6-[(2S)-3-[2-(2,6-dioxopiperidin-3-yl)-1-oxo-2,3-dihydro-1H-isoindol-5-yl]-2-hydroxypropyl]-2,6-diazaspiro[3.3]heptan-2-yl}phenyl)-1H-pyrrolo[2,3-b]pyridine-3-carbonyl]-2,4-difluorophenyl}-3-fluoropyrrolidine-1-sulfonamide], on BRAF V600E, the DC50 lay within 5 to 50 nM and the maximal degradation (Dmax) is 35 to 70%. At BRAF G466V, the 50% degradation concentration (DC50) was 1 to 10 nM and the maximal degradation (Dmax) is 35 to 70%.

As to `O=C1CCC(N2Cc3cc(N4CCN(CC5CN(c6ccc(-c7cnc8[nH]cc(C(=O)c9c(F)ccc(NS(=O)(=O)N%10CC[C@@H](F)C%10)c9F)c8c7)cc6F)C5)CC4)ccc3C2=O)C(=O)N1` (stereo partly drawn) [Compound 131, (3R)-N-[3-(5-{4-[3-({4-[2-(2,6-dioxopiperidin-3-yl)-1-oxo-2,3-dihydro-1H-isoindol-5-yl]piperazin-1-yl}methyl)azetidin-1-yl]-3-fluorophenyl}-1H-pyrrolo[2,3-b]pyridine-3-carbonyl)-2,4-difluorophenyl]-3-fluoropyrrolidine-1-sulfonamide], on BRAF V600E, the 50% degradation concentration (DC50) was 5 to 50 nM and the greatest degradation seen (Dmax) lay within 35 to 70%. Moreover, at BRAF G466V, the DC50 fell in the range of 1 to 10 nM and the greatest degradation seen (Dmax) lay in the range of 35 to 70%.

`COc1cc(N2CC3(CN(CC4CCN(c5ccc(-c6cnc7[nH]cc(C(=O)c8c(F)ccc(NS(=O)(=O)N9CC[C@@H](F)C9)c8F)c7c6)cc5F)CC4)C3)C2)cc2c1C(=O)N(C1CCC(=O)NC1=O)C2` (stereo partly drawn) [Compound 132, (3R)-N-[3-(5-{4-[4-({6-[2-(2,6-dioxopiperidin-3-yl)-7-methoxy-1-oxo-2,3-dihydro-1H-isoindol-5-yl]-2,6-diazaspiro[3.3]heptan-2-yl}methyl)piperidin-1-yl]-3-fluorophenyl}-1H-pyrrolo[2,3-b]pyridine-3-carbonyl)-2,4-difluorophenyl]-3-fluoropyrrolidine-1-sulfonamide]: on BRAF V600E, the 50% degradation concentration (DC50) fell in the range of 5 to 50 nM and the Dmax lay within 35 to 70%. Further, on BRAF G466V, the 50% degradation concentration (DC50) was less than 1 nM and the Dmax was greater than 70%.

Regarding `COc1cc(N2CC3(CN(CC4CCN(c5ccc(-c6cnc7[nH]cc(C(=O)c8c(F)ccc(NS(=O)(=O)N9CC[C@@H](F)C9)c8F)c7c6)cn5)CC4)C3)C2)cc2c1C(=O)N(C1CCC(=O)NC1=O)C2` (stereo partly drawn) [Compound 133, (3R)-N-[3-(5-{6-[4-({6-[2-(2,6-dioxopiperidin-3-yl)-7-methoxy-1-oxo-2,3-dihydro-1H-isoindol-5-yl]-2,6-diazaspiro[3.3]heptan-2-yl}methyl)piperidin-1-yl]pyridin-3-yl}-1H-pyrrolo[2,3-b]pyridine-3-carbonyl)-2,4-difluorophenyl]-3-fluoropyrrolidine-1-sulfonamide], on BRAF V600E, the DC50 lay in the range of 5 to 50 nM and the greatest degradation seen (Dmax) was 35 to 70%. On BRAF G466V, the 50% degradation concentration (DC50) is less than 1 nM and the greatest degradation seen (Dmax) is greater than 70%.

Consider `COc1cc(N2CC3(CN(CC4CCN(c5ncc(-c6cnc7[nH]cc(C(=O)c8c(F)ccc(NS(=O)(=O)N9CC[C@@H](F)C9)c8F)c7c6)cn5)CC4)C3)C2)cc2c1C(=O)N(C1CCC(=O)NC1=O)C2` (stereo partly drawn) [Compound 134, (3R)-N-[3-(5-{2-[4-({6-[2-(2,6-dioxopiperidin-3-yl)-7-methoxy-1-oxo-2,3-dihydro-1H-isoindol-5-yl]-2,6-diazaspiro[3.3]heptan-2-yl}methyl)piperidin-1-yl]pyrimidn-5-yl}-1H-pyrrolo[2,3-b]pyridine-3-carbonyl)-2,4-difluorophenyl]-3-fluoropyrrolidine-1-sulfonamide], for which, at BRAF V600E, the DC50 lay within 5 to 50 nM and the Dmax was 35 to 70%. At BRAF G466V, the DC50 is less than 1 nM and the Dmax was greater than 70%.

`O=C1CCC(N2Cc3cc(N4CCN(CCCC5CCN(c6ccc(-c7cnc8[nH]cc(C(=O)c9c(F)ccc(NS(=O)(=O)N%10CC[C@@H](F)C%10)c9F)c8c7)cc6)CC5)CC4)ccc3C2=O)C(=O)N1` (stereo partly drawn) [Compound 135, (3R)-N-[3-(5-{4-[4-(3-{4-[2-(2,6-dioxopiperidin-3-yl)-1-oxo-2,3-dihydro-1H-isoindol-5-yl]piperazin-1-yl}propyl)piperidin-1-yl]phenyl}-1H-pyrrolo[2,3-b]pyridine-3-carbonyl)-2,4-difluorophenyl]-3-fluoropyrrolidine-1-sulfonamide]: the values for the DC50 at BRAF V600E and at BRAF G466V were 5 to 50 nM and 1 to 10 nM, respectively. Also, the figures for the greatest degradation seen (Dmax) on BRAF V600E and at BRAF G466V were 35 to 70% and greater than 70%, respectively.

For the compound `O=C1CCN(c2ccc(N3CCN(CCc4ccc(-c5cnc6[nH]cc(C(=O)c7c(F)ccc(NS(=O)(=O)N8CC[C@@H](F)C8)c7F)c6c5)cc4)CC3)cc2F)C(=O)N1` [Compound 136, (3R)-N-(3-{5-[4-(2-{4-[4-(2,4-dioxo-1,3-diazinan-1-yl)-3-fluorophenyl]piperazin-1-yl}ethyl)phenyl]-1H-pyrrolo[2,3-b]pyridine-3-carbonyl}-2,4-difluorophenyl)-3-fluoropyrrolidine-1-sulfonamide], the values for the 50% degradation concentration (DC50) on BRAF V600E and on BRAF G466V were 50 to 500 nM and greater than 30 nM, respectively. Further, the Dmax at BRAF V600E was less than 35%.

Take `O=C1CCC(N2Cc3cc(N4CCC(CCCN5CCN(c6ccc(-c7cnc8[nH]cc(C(=O)c9c(F)ccc(NS(=O)(=O)N%10CC[C@@H](F)C%10)c9F)c8c7)cc6)CC5)CC4)ccc3C2=O)C(=O)N1` (stereo partly drawn) [Compound 137, (3R)-N-[3-(5-{4-[4-(3-{1-[2-(2,6-dioxopiperidin-3-yl)-1-oxo-2,3-dihydro-1H-isoindol-5-yl]piperidin-4-yl}propyl)piperazin-1-yl]phenyl}-1H-pyrrolo[2,3-b]pyridine-3-carbonyl)-2,4-difluorophenyl]-3-fluoropyrrolidine-1-sulfonamide]: the DC50 on BRAF V600E was in the range of 5 to 50 nM; on BRAF G466V, 1 to 10 nM. Also, the Dmax at BRAF V600E is 35 to 70%; on BRAF G466V it was greater than 70%.

For the compound `O=C1CCC(N2Cc3cc(OCCCOC4CCN(c5ccc(-c6cnc7[nH]cc(C(=O)c8c(F)ccc(NS(=O)(=O)N9CC[C@@H](F)C9)c8F)c7c6)cc5)CC4)ccc3C2=O)C(=O)N1` (stereo partly drawn) [Compound 139, (3R)-N-[3-(5-{4-[4-(3-{[2-(2,6-dioxopiperidin-3-yl)-1-oxo-2,3-dihydro-1H-isoindol-5-yl]oxy}propoxy)piperidin-1-yl]phenyl}-1H-pyrrolo[2,3-b]pyridine-3-carbonyl)-2,4-difluorophenyl]-3-fluoropyrrolidine-1-sulfonamide], at BRAF V600E, the 50% degradation concentration (DC50) was in the range of 50 to 500 nM and the Dmax lay within 35 to 70%. Besides, on BRAF G466V, the half-maximal degradation concentration (DC50) was in the range of 1 to 10 nM and the maximal degradation (Dmax) is greater than 70%.
